Test results reported in patent publication US20080026996A1, “Selective Vpac2 Receptor Reptide Agonists” (ELI LILLY AND COMPANY, priority 2004, published 2008).
Where no end group is shown, it is not given here. [ ]: non-standard residue; d: D form. The star is where a group is joined. hArg = N=C(N)NCCCC[C@H](N)C(=O)O; Orn = NCCC[C@H](N)C(=O)O; Hexanoyl = CCCCCC(=O)*; Aib = CC(C)(N)C(=O)O

Tests used:
human VPAC1 = target: T1, human VPAC1 (Homo sapiens, UniProt P32241); assay: Filter binding assay, membranes of cells transiently transfected with human VPAC1, 125I-labeled VIP tracer (Table 2); design: expressed in transfected cells; details: read-out: Human VPAC1 Receptor Binding
T1 sequence (P32241 31-457): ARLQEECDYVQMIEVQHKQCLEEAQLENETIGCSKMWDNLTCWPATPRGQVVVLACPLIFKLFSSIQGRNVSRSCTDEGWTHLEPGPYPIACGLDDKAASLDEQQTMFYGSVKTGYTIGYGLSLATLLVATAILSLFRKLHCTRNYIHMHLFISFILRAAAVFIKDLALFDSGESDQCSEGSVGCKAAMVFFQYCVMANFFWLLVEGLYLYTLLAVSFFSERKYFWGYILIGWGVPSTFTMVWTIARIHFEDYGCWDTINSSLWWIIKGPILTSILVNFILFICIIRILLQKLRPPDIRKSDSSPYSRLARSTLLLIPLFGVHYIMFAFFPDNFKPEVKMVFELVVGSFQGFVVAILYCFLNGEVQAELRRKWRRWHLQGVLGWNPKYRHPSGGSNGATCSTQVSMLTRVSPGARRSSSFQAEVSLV
Procedure, shortened: (§1)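 Competition binding of agonists against radiotracer on receptor membranes (2.5 μg) in 25 mM HEPES pH 7.4 with 0.5% protease-free BSA, about 40000 cpm tracer, 1 hour with shaking. Bound tracer was separated by filtration on PEI-presoaked, BSA-blocked glass-fibre filters, washed and counted by scintillation.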

human VPAC2 [1] = target: T2, human VPAC2 (Homo sapiens, UniProt P41587); assay: Alpha screen cAMP in vitro potency, human VPAC2 receptor; format: cell-based; details: cAMP generation; single result from two analyses performed in a single run; read-out: Human VPAC2 Receptor: Alpha Screen EC50
T2 construct: expressed in transfected cells
T2 sequence (P41587 24-438): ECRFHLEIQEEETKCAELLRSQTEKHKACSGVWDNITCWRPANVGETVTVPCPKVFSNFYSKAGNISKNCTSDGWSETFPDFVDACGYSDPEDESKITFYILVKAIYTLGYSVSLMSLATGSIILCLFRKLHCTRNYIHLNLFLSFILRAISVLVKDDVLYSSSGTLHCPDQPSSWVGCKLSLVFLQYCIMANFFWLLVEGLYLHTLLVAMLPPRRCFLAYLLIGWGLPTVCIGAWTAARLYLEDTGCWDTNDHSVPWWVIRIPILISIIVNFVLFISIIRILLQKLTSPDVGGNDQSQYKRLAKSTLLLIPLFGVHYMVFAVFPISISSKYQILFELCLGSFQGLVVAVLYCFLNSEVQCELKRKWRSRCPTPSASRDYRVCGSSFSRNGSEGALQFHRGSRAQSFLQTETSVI
Procedure, shortened: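 This followed a 60 min stimulation of 50,000 enzyme-free-dissociated cells per point with acceptor beads in stimulation buffer.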

rat VPAC2 receptor = target: T3, rat VPAC2 receptor (Rattus norvegicus, UniProt P35000); assay: DiscoveRx in vitro potency, CHO-PO cells transiently transfected with rat VPAC 2 receptor DNA; format: cell-based; design: expressed in transfected cells; host or cells: CHO-PO, transient
T3 sequence (P35000 23-437): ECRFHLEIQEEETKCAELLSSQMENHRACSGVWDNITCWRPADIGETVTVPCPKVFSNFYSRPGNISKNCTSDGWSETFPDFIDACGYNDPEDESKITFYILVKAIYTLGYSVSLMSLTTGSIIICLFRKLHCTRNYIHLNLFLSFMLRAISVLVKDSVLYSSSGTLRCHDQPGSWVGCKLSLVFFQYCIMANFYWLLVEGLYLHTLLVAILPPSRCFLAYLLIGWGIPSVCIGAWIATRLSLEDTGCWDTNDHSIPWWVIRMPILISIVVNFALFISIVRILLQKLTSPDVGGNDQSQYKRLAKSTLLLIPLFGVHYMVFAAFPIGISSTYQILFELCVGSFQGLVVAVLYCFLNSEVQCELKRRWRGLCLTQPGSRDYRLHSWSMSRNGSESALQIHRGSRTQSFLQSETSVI
Procedure: Also, the cells are washed twice. […] The stimuli are present for 30 minutes. Then, the assay buffer is gently removed.

human VPAC2 [2] = target: T2, human VPAC2; assay: Filter binding assay, membranes of stable VPAC2 cell line, 125I-labeled VIP tracer (Table 2); details: read-out: Human VPAC2 Receptor Binding
Procedure, shortened: as §1

human PAC1 = target: T4, human PAC1 (Homo sapiens, UniProt P41586); assay: Filter binding assay, membranes of cells transiently transfected with human PAC1, 125I-labeled PACAP-27 tracer (Table 2); design: expressed in transfected cells; details: read-out: Human PAC1 Receptor Binding
T4 sequence (P41586 21-468): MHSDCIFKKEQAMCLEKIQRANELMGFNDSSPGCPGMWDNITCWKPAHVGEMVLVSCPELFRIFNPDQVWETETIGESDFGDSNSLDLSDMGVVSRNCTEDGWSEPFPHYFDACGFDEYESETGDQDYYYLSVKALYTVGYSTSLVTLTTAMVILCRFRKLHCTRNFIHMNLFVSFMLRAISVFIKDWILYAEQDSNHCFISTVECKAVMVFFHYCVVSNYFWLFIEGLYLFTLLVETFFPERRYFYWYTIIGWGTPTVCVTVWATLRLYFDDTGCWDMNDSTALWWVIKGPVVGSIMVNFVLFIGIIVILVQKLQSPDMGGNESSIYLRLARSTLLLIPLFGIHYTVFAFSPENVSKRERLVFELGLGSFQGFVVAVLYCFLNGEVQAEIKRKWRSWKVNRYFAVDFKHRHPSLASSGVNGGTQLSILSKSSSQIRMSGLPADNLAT
Procedure, shortened: as §1

[3] = Rat serum stability studies (remaining active peptide by DiscoveRx cAMP on CHO-VPAC2 cells); format: in vitro ADME
Procedure, shortened: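 Rat serum, 18 h: +aprotinin aliquot at 4° C, no-aprotinin aliquot at 37° C. Then 30 min RT step, supernatant removed, 1 h shaking at 300 rpm. DiscoveRx cAMP kit on CHO-VPAC2; EC50 from cAMP data vs standards.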

| Compound | IC50 (human VPAC1) [nM] | EC50 (human VPAC2 [1]) [nM] | EC50 (rat VPAC2 receptor) [nM] | IC50 (human VPAC2 [2]) [nM] | IC50 (human PAC1) [nM] | Rat Serum Stability (estimated purity in % after 18 hours) [3] [%] | Rat Serum Stability (Estimated purity in % after 72 hours) [3] [%] |
| --- | --- | --- | --- | --- | --- | --- | --- |
| Hexanoyl-HSDAVFTDNYTRLK[Aib]QVAA[Aib]KYLQSIKNKRYGGPSSGAPPPS [Agonist P318] | > 3000 | 0.32 | 0.09 | 0.63 | > 25000 | 29.95 |  |
| CCCCCC(=O)N[C@@H](Cc1c[nH]cn1)C(=O)N[C@@H](CO)C(=O)N[C@@H](CC(=O)O)C(=O)N[C@@H](C)C(=O)N[C@H](C(=O)N[C@@H](Cc1ccccc1)C(=O)N[C@H](C(=O)N[C@@H](CC(=O)O)C(=O)N[C@@H](CC(N)=O)C(=O)N[C@@H](Cc1ccc(O)cc1)C(=O)N[C@H](C(=O)N[C@@H](CCCCNC(=N)N)C(=O)N[C@@H](CC(C)C)C(=O)N[C@@H](CCCNC(=N)N)C(=O)NC(C)(C)C(=O)N[C@@H](CCC(N)=O)C(=O)N[C@H](C(=O)N[C@@H](C)C(=O)N[C@@H](C)C(=O)NC(C)(C)C(=O)N[C@@H](CCCCN)C(=O)N[C@@H](Cc1ccc(O)cc1)C(=O)N[C@@H](CC(C)C)C(=O)N[C@@H](CCC(N)=O)C(=O)N[C@@H](CO)C(=O)N[C@H](C(=O)N[C@@H](CCCCNC(=N)N)C(=O)N[C@@H](CC(N)=O)C(=O)N[C@@H](CCCCNC(=N)N)C(=O)N[C@@H](CCCCNC(=N)N)C(=O)N[C@@H](Cc1ccc(O)cc1)C(=O)NCC(=O)NCC(=O)N1CCC[C@H]1C(=O)N[C@@H](CO)C(=O)N[C@@H](CO)C(=O)NCC(=O)N[C@@H](C)C(=O)N1CCC[C@H]1C(=O)N1CCC[C@H]1C(=O)N1CCC[C@H]1C(=O)N[C@@H](CO)C(=O)O)[C@@H](C)CC)C(C)C)[C@@H](C)O)[C@@H](C)O)C(C)C [Agonist P338] | > 3000 | 0.46 | 0.07 | 0.76 |  | 36.61 |  |
| Hexanoyl-HSDAVFTDNYTRLRQQVAAKKYLQSIKNKRYGGPSSGAPPPS [Agonist P177] | 128 | 0.21 | 0.1 | 0.7 | 276 | 0.49 |  |
| CCCCCC(=O)N[C@@H](Cc1c[nH]cn1)C(=O)N[C@@H](CO)C(=O)N[C@@H](CC(=O)O)C(=O)N[C@@H](C)C(=O)N[C@H](C(=O)N[C@@H](Cc1ccccc1)C(=O)N[C@H](C(=O)N[C@@H](CC(=O)O)C(=O)N[C@@H](CC(N)=O)C(=O)N[C@@H](Cc1ccc(O)cc1)C(=O)N[C@H](C(=O)N[C@@H](CCCN)C(=O)N[C@@H](CC(C)C)C(=O)N[C@@H](CCCNC(=N)N)C(=O)NC(C)(C)C(=O)N[C@@H](CCC(N)=O)C(=O)N[C@H](C(=O)N[C@@H](C)C(=O)N[C@@H](C)C(=O)NC(C)(C)C(=O)N[C@@H](CCCCN)C(=O)N[C@@H](Cc1ccc(O)cc1)C(=O)N[C@@H](CC(C)C)C(=O)N[C@@H](CCC(N)=O)C(=O)N[C@@H](CO)C(=O)N[C@H](C(=O)N[C@@H](CCCN)C(=O)N[C@@H](CC(N)=O)C(=O)N[C@@H](CCCN)C(=O)NCC(=O)NCC(=O)N1CCC[C@H]1C(=O)N[C@@H](CO)C(=O)N[C@@H](CO)C(=O)NCC(=O)N[C@@H](C)C(=O)N1CCC[C@H]1C(=O)N1CCC[C@H]1C(=O)N1CCC[C@H]1C(=O)N[C@@H](CO)C(=O)O)[C@@H](C)CC)C(C)C)[C@@H](C)O)[C@@H](C)O)C(C)C [Agonist P326] | > 3000 | 0.21 | 0.09 | 0.33 | > 25000 | 90.10 | 49.6 |
| CCCCCC(=O)N[C@@H](Cc1c[nH]cn1)C(=O)N[C@@H](CO)C(=O)N[C@@H](CC(=O)O)C(=O)N[C@@H](C)C(=O)N[C@H](C(=O)N[C@@H](Cc1ccccc1)C(=O)N[C@H](C(=O)N[C@@H](CC(=O)O)C(=O)N[C@@H](CC(N)=O)C(=O)N[C@@H](Cc1ccc(O)cc1)C(=O)N[C@H](C(=O)N[C@@H](CCCNC(=N)N)C(=O)N[C@@H](CC(C)C)C(=O)N[C@@H](CCCNC(=N)N)C(=O)NC(C)(C)C(=O)N[C@@H](CCC(N)=O)C(=O)N[C@H](C(=O)N[C@@H](C)C(=O)N[C@@H](C)C(=O)NC(C)(C)C(=O)N[C@@H](CCCCN)C(=O)N[C@@H](Cc1ccc(O)cc1)C(=O)N[C@@H](CC(C)C)C(=O)N[C@@H](CCC(N)=O)C(=O)N[C@@H](CO)C(=O)N[C@H](C(=O)N[C@@H](CCCN)C(=O)N[C@@H](CCCN)C(=O)NCC(=O)NCC(=O)N1CCC[C@H]1C(=O)N[C@@H](CO)C(=O)N[C@@H](CO)C(=O)NCC(=O)N[C@@H](C)C(=O)N1CCC[C@H]1C(=O)N1CCC[C@H]1C(=O)N1CCC[C@H]1C(=O)N[C@@H](CO)C(=O)O)[C@@H](C)CC)C(C)C)[C@@H](C)O)[C@@H](C)O)C(C)C [Agonist P352] | > 3000 | 0.14 | 0.09 | 0.6 |  | 45.09 | 2.2 |
| Hexanoyl-HSDAVFTDNYTRL[hArg][Orn]QVAAKKYLQSIKNKRYGGPSSGAPPPS [Agonist P308] | 262 | 0.26 | 0.09 | 0.34 |  | 0.97 |  |
| Hexanoyl-HSDAVFTDNYT[Orn]LR[Aib]QVAA[Aib]KYLQSIKNKRYGGPSSGAPPPS [Agonist P344] | > 3000 | 0.13 | 0.06 | 0.25 |  | 50.19 | 43.0 |
| Hexanoyl-HSDAVFTDQYTRLR[Aib]QVAA[Aib]KYLQSIKQKRYGGPSSGAPPPS [Agonist P315] | > 3000 | 0.19 | 0.04 | 0.29 |  | 24.00 |  |
| Hexanoyl-HSDAVFTDNYTRLR[Aib]QVAA[Aib][Orn]YLQSIKNKRYGGPSSGAPPPS [Agonist P342] | > 3000 | 0.21 | 0.06 | 0.35 |  | 25.96 |  |
